Reference: patent US9718772B2, “Crystalline (3Z,5S)-5-(hydroxymethyl)-1-[(2′-methyl-1,1′-biphenyl-4-yl)carbonyl]pyrrolidin-3-one O-methyloxime, and methods of using the same” (ObsEva SA, priority 2014, dated 2017)
Entries after “also recorded” stand apart in the source; their conditions may differ.

Key:
Format in all cases: physicochemical
[1] = MB (moisture balance) of the crystalline compound from ethyl acetate; conditions: crystallized from ethyl acetate
Method: Ethyl acetate was added to amorphous (3Z,5S)-5-(hydroxymethyl)-1-[(2′-methyl-1,1′-biphenyl-4-yl)carbonyl]pyrrolidin-3-one O-methyloxime. The suspension was sonicated in ambient bath tor 60 minutes to provide a clear solution that was further sonicated and cooled over 10 minutes. The clear solution was placed in the freezer for 4 days. The solvent was decanted and the solid was washed with hexane, then dried under nitrogen flow for 30 minutes. The resulting solid was analyzed by XRPD and confirmed to be crystalline (3Z,5S)-5-(hydroxymethyl)-1-[(2′-methyl-1,1′-biphenyl-4-yl)carbonyl]pyrrolidin-3-one O-methyloxime. FIGS. 7 and 9 are the DSC and TGA curves, respectively, obtained front testing this sample.

[2] = Solid stress experiments (humidity, temperature, pressure, grinding, milling; XRPD)
Method: Solid stress experiments were conducted on crystalline (3Z,5S)-5-(hydroxymethyl)-1-[(2′-methyl-1,1′-biphenyl-4-yl)carbonyl]pyrrolidin-3-one O-methyloxime and amorphous (3Z,5S)-5-(hydroxymethyl)-1-[(2′-methyl-1,1′-biphenyl-4-yl)carbonyl]pyrrolidin-3-one O-methyloxime and the results shown below in Tables 8 and 9. […] Stressing at 97% RH for the same time caused the material to deliquesce.

[3] = Comparative stability study: slurries stirred in pH 7 phosphate buffer (USP) at 25° C., observation and XRPD; conditions: for XRPD pattern of solids after stirring in pH 7 buffer: stirred 24 hours at 25° C., solids air dried overnight (FIG. 4, FIG. 5)
Method: Slurries of crystalline (3Z,5S)-5-(hydroxymethyl)-1-[(2′-methyl-1,1′-biphenyl-4-yl)carbonyl]pyrrolidin-3-one O-methyloxime and amorphous (3Z,5S)-5-(hydroxymethyl)-1-[(2′-methyl-1,1′-biphenyl-4-yl)carbonyl]pyrrolidin-3-one O-methyloxime were prepared by weighing directly into vials 100 mg of crystalline or amorphous material, About 3 mL of pH 7 phosphate buffer USP was added to each sample. Samples of each of the slurries were stirred in pH 7 phosphate buffer (USP) at 25° C. for 24 hours. At the end of 24 hours, the solvent was removed from the sample by pipetting out and solids allowed to air dry in the fumehood overnight. Solids were then submitted for XRPD analysis. Both the samples first appeared as white powders. Pictures of the samples were taken at time points corresponding to 0.5 min, 15 min, 1 hour, 3 hours and 24 hours after adding the pH 7 phosphate buffer.

[4] = Vacuum-drying of the crystalline compound, XRPD comparison (FIG. 2); conditions: vacuum-drying at about 45° C. for about 65 hours; crystallized from diethyl ether
Method: “After crystallization” means after preparation of the solid and drying at ambient temperature to about 45° C.
23 mg of the solid was then further vacuum-dried at 45° C. for an additional 65 hours. The resulting solid was analyzed by XRPD and confirmed to be the crystalline compound.

[5] = Comparative stability study: slurries stirred in pH 7 phosphate buffer (USP) at 25° C., observation and XRPD; conditions: in pH 7 phosphate buffer at 25° C., T = 5 min
[6] = 75% RH, amorphous starting material
[7] = 10,000 psi, 1 minute, crystallized from Diethyl Ether
[8] = Ether stress, solid in solvent at ambient, 3 days (slurry)

weight gain from 5% RH to 95% RH ([1]; MB (moisture balance)): 3.25% weight gain from 5% RH to 95% RH | weight loss from 95% RH to 5% RH ([1]; MB (moisture balance)): 1.44% weight loss from 95% RH to 5% RH | Post MB XRPD ([1]; after moisture balance): Crystalline form and Amorphous | Habit/Description ([2]; 40° C., 10 days): Rounded chunks | XRPD Result ([2]; 40° C., 10 days): Amorphous | Habit/Description ([2]; 40° C./75% RH, 1 day): Oil drops | Habit/Description ([2]; 1 minute grind, crystallized from Diethyl Ether): White Solid | Habit/Description ([2]; 70° C., 1 day): Oil puddle | Habit/Description ([2]; 70° C., 6 days): Rounded chunks, clear oil drops | XRPD Result ([2]; 70° C., 6 days): Amorphous | weight gain ([2]; 75% RH, after 1 day): 2.5% weight gain after 1 day | weight gain ([2]; 75% RH, after 5 days): 3.7% weight gain after 5 days | weight gain ([2]; 75% RH, after 12 days): 6.6% weight gain after 12 days | weight gain ([2]; 75% RH, after 20 days): 2.9% weight gain after 20 days | Habit/Description [2, 6]: White jagged flakes, chunks, no | XRPD Result [2, 6]: Amorphous | Habit/Description ([2]; 97% RH, 3 days, amorphous starting material): Deliquesced | Habit/Description ([2]; 97% RH, 3 days, crystallized from Ethyl Acetate): Deliquesced | Habit/Description [2, 7]: White Solid | XRPD Result [2, 7]: remained in crystalline form | Habit/Description [2, 8]: White chunks, bits | XRPD Result [2, 8]: Amorphous | Habit/Description ([2]; Milling with 10μL toluene, after 10 minutes): Stick gum like solid after 10 | Habit/Description ([2]; Milling with 10μL toluene, by 70 minutes): minutes, sticky film by 70 minutes | Habit/Description ([2]; Milling with 25 μL water, ~10 minutes): Sticky gum-like solid | Habit/Description ([2]; Solid wet with ethyl ether, after 1 day at ambient): Chunks, few areas of birefringence | Habit/Description ([2]; Solid wet with ethyl ether, after 5 days ambient): Chunks, few areas with extinguish | Observation of sample ([3]; Before adding buffer, listed as Amorphous form): White power | Observation of sample ([3]; Before adding buffer, listed as Crystalline compound): White powder | Observation of sample ([3]; in pH 7 phosphate buffer at 25° C., T = 0, listed as Crystalline compound): White powder dispersed | Observation of sample ([3]; in pH 7 phosphate buffer at 25° C., T = 15 min, listed as Amorphous (3Z,5S)-5-(hydroxymethyl)-1-[(2-methyl-1,1′-biphenyl-4-yl)carbonyl]pyr): opaque sticky material | Observation of sample ([3]; in pH 7 phosphate buffer at 25° C., T = 15 min, listed as Amorphous form): Opaque sticky round lump | Observation of sample ([3]; in pH 7 phosphate buffer at 25° C., T = 15 min, listed as Crystalline compound): White powder dispersed | Observation of sample ([3]; in pH 7 phosphate buffer at 25° C., T = 1 hour, listed as Amorphous form): Opaque sticky round lump | Observation of sample ([3]; in pH 7 phosphate buffer at 25° C., T = 1 hour, listed as Crystalline compound): White solid round lump, | Observation of sample ([3]; in pH 7 phosphate buffer at 25° C., T = 1 hour, listed as crystalline (3Z,5S)-5-(hydroxymethyl)-1-[(2′-methyl-1,1-biphenyl-4-yl)carbonyl]p): white sticky material | Observation of sample ([3]; in pH 7 phosphate buffer at 25° C., T = 3 hours, listed as Amorphous form): Opaque sticky material | Observation of sample ([3]; in pH 7 phosphate buffer at 25° C., T = 3 hours, listed as Crystalline compound): White sticky material | Observation of sample ([3]; in pH 7 phosphate buffer at 25° C., T = 24 hours, listed as Amorphous form): Opaque sticky material | Observation of sample ([3]; in pH 7 phosphate buffer at 25° C., T = 24 hours, listed as Crystalline compound): White sticky material | XRPD pattern of solids after stirring in pH 7 buffer ([3]; listed as amorphous (3Z,5S)-5-(hydroxymethyl)-1-[(2-methyl-1,1′-biphenyl-4-yl)carbonyl]pyr): presence of amorphous phase | solid form by XRPD after vacuum-drying [4]: does not change the solid form | Observation of sample ([5]; listed as Amorphous form): Thick white sticky mass | Observation of sample ([5]; listed as Crystalline compound): White powder dispersed
SMILES: CO/N=C1/C[C@@H](CO)N(C(=O)c2ccc(-c3ccccc3C)cc2)C1 [(3Z,5S)-5-(hydroxymethyl)-1-[(2′-methyl-1,1′-biphenyl-4-yl)carbonyl]pyrrolidin-3-one O-methyloxime]
weight loss upon equilibration at 5% RH ([1]; MB (moisture balance)): 0.20% weight loss upon equilibration at 5% RH | XRPD Result ([2]; 1 minute grind (by hand), crystallized from Diethyl Ether): mixture of the crystalline compound and the amorphous compound; also recorded: Crystalline form | XRPD Result ([2]; 75% RH, 3 days, crystallized from Ethyl Acetate): remained unchanged; also recorded: Crystalline form | XRPD pattern of solids after stirring in pH 7 buffer [3]: peaks consistent with those seen in the powder pattern of crystalline
